Test results taken from article PMC9097457 (The Journal of Biological Chemistry, 2022).
Counter-ions that a name gives are not always drawn. Blank lines part the entries; values can stand above or below the compound they belong to.

Legend:
[1] = target: T1, deoxyguanosine kinase (dGK) (Rattus norvegicus, UniProt A0A0G2K478); experiment: Tissue-specific phosphorylation of [3H]-dG, [3H]-dA and [3H]-ETV in isolated mitochondria; type: biochemical; conditions: for dG converted to phosphorylated products: 1 μM
T1 sequence (A0A0G2K478 with tags, fused parts or gaps): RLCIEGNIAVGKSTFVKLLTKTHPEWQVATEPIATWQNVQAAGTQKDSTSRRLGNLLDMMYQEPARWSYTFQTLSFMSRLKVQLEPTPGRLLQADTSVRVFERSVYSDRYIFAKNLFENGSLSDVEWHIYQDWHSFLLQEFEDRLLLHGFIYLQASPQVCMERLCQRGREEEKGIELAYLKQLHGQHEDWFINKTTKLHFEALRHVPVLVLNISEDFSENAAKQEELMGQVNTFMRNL
Protocol: As noted in the Experimental procedures, these were added together to determine total phosphorylation.
(§1) To measure and compare phosphorylation and kinetics, a stable substrate concentration was necessary and EHNA (5 μM) ([50]) and I-H (2.0 μM) ([49]) were added to all mitochondrial incubations. […] The mitochondria were incubated in vitro for up to 2 h at 37 °C in a shaker bath. At the end of the incubation, reactions were terminated by addition of 10% TCA to an equal volume of incubation mixture (175 μl) and spun in a microcentrifuge to remove precipitates. The supernatant was neutralized with AG 11 A8 resin and filtered through a 0.2-μM nylon syringe filter. The neutralized and filtered supernatants were analyzed by ultra high pressure liquid chromatography (UPLC). Radioactivity was determined from aliquots of each sample and processed through a Beckman Coulter multipurpose liquid scintillation counter (model 6500).
Extent of phosphorylation was measured and analyzed by UPLC (Agilent 1290) with a reverse-phase C18 column (Zorbax Eclipse Plus C18; 3.0 × 150 mm, 1.8 micron) coupled with an inline diode array to detect UV signal at 254 nm and to an inline liquid scintillation counter (β-Ram) to quantitate radioactivity.
(§2) The radioactivity in each of these peaks was quantitated and totaled to provide the total amount of radioactivity in the phosphorylated products for each labeled precursor. This total was divided by the specific radioactivity of the precursor and expressed as pmol/mg protein/hr. The Kms were calculated from Lineweaver–Burk plots 1/Vo=Km/Vmax[S]+1/Vmax

[2] = target: T2, adenosine deaminase (ADA) (Rattus norvegicus, UniProt Q920P6)
T2 sequence (Q920P6 1-352): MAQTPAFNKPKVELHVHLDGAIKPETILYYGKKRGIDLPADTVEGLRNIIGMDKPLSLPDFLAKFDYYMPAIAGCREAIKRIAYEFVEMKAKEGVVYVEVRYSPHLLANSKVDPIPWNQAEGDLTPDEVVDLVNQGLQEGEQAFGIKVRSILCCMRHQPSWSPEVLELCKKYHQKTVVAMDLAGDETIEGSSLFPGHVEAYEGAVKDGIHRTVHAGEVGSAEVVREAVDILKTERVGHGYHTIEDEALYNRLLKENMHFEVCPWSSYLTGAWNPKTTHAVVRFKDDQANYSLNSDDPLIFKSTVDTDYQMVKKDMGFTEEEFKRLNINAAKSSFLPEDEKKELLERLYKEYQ

isolated rat heart [3] = experiment: Phosphorylation of [3H]-ETV, [3H]-dG and [3H]-dA in the isolated perfused rat heart (Langendorff); conditions: for phosphorylated product in heart: 0.5 μM labeled compound alone
Protocol: The phosphorylation of [^3H]-dG, [^3H]-dA, and [^3H]-ETV in isolated mitochondria depends on the activity of the mitochondrial dGK. To determine the degree of phosphorylation in a whole tissue, which would include the activity of the cytosolic dCK, we utilized an isolated rat heart Langendorff retrograde perfusion model. The breakdown and phosphorylation of [^3H]-ETV, [^3H]-dG, and [^3H]-dA (0.5 μM each) was measured in the perfusates and in the hearts after 60 min of perfusion (Fig. 9, A and B). […] However, the heart was still able to take up and maintain a small amount of dG to generate 0.18 ± 0.05 pmol/mg wet heart of phosphorylated dG during the 60-min perfusion. […] Despite the loss of [^3H]-dA from the perfusate, the heart took up and maintained enough dA to produce 0.48 ± 0.08 pmol/mg wet heart of phosphorylated [^3H]-dA products at 60 min (Fig. 9B). […] Note that [^3H]-dG and [^3H]-dG catabolites equilibrate rapidly between the perfusion buffer and the heart, while the phosphorylated forms of [^3H]-dG are retained solely in the heart tissue.
Figure 9 [^3H]-ETV and [^3H]-dG phosphorylation in a perfused rat heart. Rat hearts were removed and perfused using the Langendorff method for 1 h as described in Experimental procedures with 0.5 μM [^3H]-ETV, 0.5 μM [^3H]-dG), or 0.5 μM [^3H]-dA. […] A, the amount of exogenous [^3H]-parent compound in the perfusate as a function of time, plotted as a box plot of three independent experiments. See text for details. B, the amount of phosphorylated [^3H]-ETV, [^3H]-dG, or [^3H]-dA in the heart tissue after 60 min of perfusion with additions as noted in (A). See text for details.
Rat hearts were perfused by Langendorff retrograde perfusion apparatus with [^3H]-dG, [^3H]-dA, or [^3H]-ETV for 60 min under the conditions previously described ([25], [26], [51]). Perfused hearts were snap frozen into wafers by clamping the heart in liquid nitrogen, and the frozen tissue wafers were stored in −80 °C until processed as previously described for ([24]) UPLC analysis.

isolated rat heart [4] = experiment: Breakdown of the [3H]-parent compound in the perfusate of the isolated perfused rat heart; type: in vitro ADME
Protocol: To determine the degree of phosphorylation in a whole tissue, which would include the activity of the cytosolic dCK, we utilized an isolated rat heart Langendorff retrograde perfusion model.
See text for details. […] See text for details.
Perfused hearts were snap frozen into wafers by clamping the heart in liquid nitrogen, and the frozen tissue wafers were stored in −80 °C until processed as previously described for ([24]) UPLC analysis.

[5] = target: T1, deoxyguanosine kinase (dGK); experiment: Inhibition of [3H]-dA phosphorylation by competing deoxynucleosides in liver mitochondria; type: biochemical; conditions: IC50 values at 1 μM substrate
Protocol: as §1, §2

[6] = target: T1, deoxyguanosine kinase (dGK); experiment: Kinetic analysis of [3H]-dG and [3H]-ETV phosphorylation and cross inhibition in heart mitochondria; type: biochemical; conditions: data of Figure 4
Protocol: as §1, §2

[7] = target: T1, deoxyguanosine kinase (dGK); experiment: Kinetic analysis of [3H]-dA phosphorylation in the presence of dG or ETV in liver mitochondria; type: biochemical; conditions: 0.12 μM inhibitor, 4 μM dA
Protocol: as §1

heart mitochondria = experiment: Conversion of [3H]-dGMP to [3H]-dGTP in isolated heart mitochondria; type: biochemical, rat
Protocol: (§3) Thus, we were interested in determining if the dGTP and dATP phosphorylation pathway in isolated mitochondria functioned similarly.
(§4) [^3H]-dGMP (1 μM) or [^3H]-dAMP (1 μM) was incubated in heart mitochondria as described for Figure 1 for the times shown, and their conversion to [^3H]-dGTP and [^3H]-dATP, respectively, determined in the presence and absence of Ap5A ([…]), a competitive inhibitor of adenylate kinase. Data are shown as a box plot of two independent experiments. The thickness of the lines indicates the spread of the duplicates. Ap5A, P1,P5-di(adenosine-5) pentaphosphate pentasodium salt.
as §1

[8] = target: T3, purine nucleoside phosphorylase (PNP) (Rattus norvegicus, UniProt P85973)
T3 sequence (P85973 1-289): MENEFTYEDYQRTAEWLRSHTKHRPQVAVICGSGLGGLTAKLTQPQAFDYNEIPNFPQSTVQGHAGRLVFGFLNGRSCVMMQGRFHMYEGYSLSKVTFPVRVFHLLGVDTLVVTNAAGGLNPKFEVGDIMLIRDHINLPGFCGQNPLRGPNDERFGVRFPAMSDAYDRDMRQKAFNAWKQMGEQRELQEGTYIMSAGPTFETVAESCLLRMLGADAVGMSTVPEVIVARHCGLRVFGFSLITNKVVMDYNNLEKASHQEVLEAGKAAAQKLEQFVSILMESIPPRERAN

adenylate kinase = experiment: Conversion of [3H]-dAMP to [3H]-dATP in isolated heart mitochondria; type: biochemical, rat
Protocol: as §3, §4
as §1, with “The supernatant was neutralized with AG 11 A8 resin and filtered through a 0.2-μM nylon syringe filter.” left out

[9] = tested on: mitochondrial polymerase γ; conditions: cited from earlier work
[10] = heart mitochondria, initial studies

- parent compound in the perfusate by 60 min (isolated rat heart [4]; 0.5 μM [3H]-dA, EHNA added): complete loss
- parent compound remaining in the perfusate by 3 min (isolated rat heart [4]; 0.5 μM [3H]-dA, EHNA added): 47.5%
- parent compound in the perfusate by 3 min (isolated rat heart [4]; 0.5 μM [3H]-dA, in the presence of I-H): completely lost
- stability in heart mitochondria [2, 10]: stable
- conversion of [3H]-dA to breakdown products ([2]; mitochondria isolated from kidney, 60 min, no inhibitor): 28%
SMILES: Nc1ncnc2c1ncn2[C@H]1C[C@H](O)[C@@H](CO)O1 [dA, deoxyadenosine]
- phosphorylated [3H]-dA products in heart (isolated rat heart [3]; 0.5 μM [3H]-dA, I-H and EHNA in the perfusate, 60 min): 0.48 ± 0.08 pmol/mg wet heart

- dG phosphorylated more readily than dA ([1]; 1 μM each, 2 h, brain, heart, kidney, liver mitochondria): 10 fold
- dG converted to phosphorylated products ([1]; heart mitochondria, 2 h): 30 pmol/mg mitochondrial protein
- dG converted to phosphorylated products ([1]; liver mitochondria, 2 h): 60 pmol/mg mitochondrial protein
- inhibition of dA phosphorylation more potent than ETV inhibition of dG phosphorylation [5]: 500 fold
- rate of [3H]-dG phosphorylation to [3H]-dGTP, control ([6]; absence of ETV): 45.9 ± 1.8 pmol/mg protein/hr
- inhibition of dA phosphorylation [7]: nearly completely inhibited
- parent compound in the perfusate within 3 min (isolated rat heart [4]; 0.5 μM [3H]-dG alone): 25 ± 8.8%
- parent compound in the perfusate, initial level (isolated rat heart [4]; 0.5 μM [3H]-dG alone): 86.8 ± 0.7%
- stability in heart mitochondria [8, 10]: stable
- conversion of [3H]-dG to breakdown products ([8]; kidney mitochondria, 60 min, no inhibitor): 22%
SMILES: Nc1nc2c(ncn2[C@H]2C[C@H](O)[C@@H](CO)O2)c(=O)[nH]1 [dG, deoxyguanosine]
- conversion to [3H]-dGTP at the 30-min time point (heart mitochondria; 1 μM precursor): 22.4 ± 0.8 pmol/mg protein
- phosphorylated [3H]-dG in heart (isolated rat heart [3]; 0.5 μM [3H]-dG + I-H 2 μM (legend: + I-H and EHNA), 60-min perfusion): 0.57 ± 0.08 pmol/mg wet heart
- phosphorylated product in heart (isolated rat heart [3]; 60-min perfusion): 0.18 ± 0.05 pmol/mg wet heart
- parent compound in the perfusate by 60 min (isolated rat heart [4]; 0.5 μM [3H]-dG alone): nearly completely converted to catabolites

- inhibition of dA phosphorylation more potent than ETV inhibition of dG phosphorylation [5]: 500 fold
- rate of [3H]-dG phosphorylation to [3H]-dGTP in the presence of inhibitor ([6]; 40 μM ETV): 12.4 ± 2.0 pmol/mg protein/hr
SMILES: C=C1[C@H](CO)[C@@H](O)C[C@@H]1n1cnc2c(=O)[nH]c(N)nc21 [ETV, entecavir]
- effect on conversion of [3H]-dGMP to [3H]-dGTP (heart mitochondria; ETV 40 μM): no effect
- phosphorylated product in heart (isolated rat heart [3]; 60-min perfusion): 0.25 ± 0.05 pmol/mg wet heart
- inhibition of [3H]-dG phosphorylation (isolated rat heart [3]; 100 μM unlabeled ETV added to [3H]-dG + I-H, 60-min perfusion): 82.0 ± 0.7%
- effect on [3H]-dA phosphorylation (isolated rat heart [3]; ETV 100 μM added to the perfusate): did not appear to inhibit

- time to complete conversion to [3H]-dATP (adenylate kinase; 1 μM): ≤ 10 min
SMILES: Nc1ncnc2c1ncn2[C@H]1C[C@H](O)[C@@H](COP(=O)(O)O)O1 [dAMP]

The next lines start with the compound.

SMILES: CCCCCCC(C(C)O)n1cnc2c(N)ncnc21.Cl (stereo not drawn) [EHNA, erythro-9-(2-Hydroxy-3-nonyl)-adenine hydrochloride]
- effect on [3H]-dA or [3H]-dG phosphorylation ([1]; heart mitochondria): no effect
- effect on conversion of [3H]-dA to breakdown products ([2]; EHNA 5 μM, 60 min): completely prevented this conversion

SMILES: O=c1[nH]cnc2c([C@@H]3N[C@H](CO)[C@@H](O)[C@H]3O)c[nH]c12 [I-H, forodesine hydrochloride]
- effect on [3H]-dA or [3H]-dG phosphorylation ([1]; heart mitochondria): no effect
- effect on breakdown of dG in the perfusate (isolated rat heart [4]; I-H 2 μM): prevented most of the breakdown
- effect on conversion of [3H]-dG to breakdown products ([8]; 2.0 μM, kidney mitochondria, 60 min): completely prevented this conversion
- effect on [3H]-dA breakdown ([2]; Immucillin-H 2.0 μM, 60 min): no effect

SMILES: Nc1ncnc2c1ncn2[C@@H]1O[C@H](COP(=O)([O-])OP(=O)([O-])OP(=O)([O-])OP(=O)([O-])OP(=O)([O-])OC[C@H]2O[C@@H](n3cnc4c(N)ncnc43)[C@H](O)[C@@H]2O)[C@@H](O)[C@H]1O.[Na+].[Na+].[Na+].[Na+].[Na+] [Ap5A, P1,P5-di(adenosine-5) pentaphosphate pentasodium salt]
- effect on phosphorylation of dGMP (heart mitochondria; Ap5A 40 μM): not inhibited
- effect on conversion of [3H]-dAMP to [3H]-dATP (adenylate kinase; Ap5A 40 μM): inhibited

SMILES: C=C1C(COP(=O)(O)OP(=O)(O)OP(=O)(O)O)C(O)CC1n1cnc2c(=O)[nH]c(N)nc21 (stereo not drawn) [ETV-triphosphate]
- recognition by mitochondrial polymerase γ [9]: not recognized
